pIC50: −log10 of the molar value.
Experiments:
[1] = target: His6-TEV-PDGFRβ (557-1016) (Homo sapiens (Human), UniProt P09619); assay: PDGFRβ HTRF Assay; type: biochemical; settings: read-out: PDGFR HTRF IC50
How it was run: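 HTRF KinEASE-TK readout (665/620 nm ratio) of TK-biotin substrate phosphorylation by His-tagged PDGFRβ kinase domain. Enzyme and inhibitor preincubated 30 min, then ATP/substrate added for 3 h at room temperature before 60 min EDTA quench/detection.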

[2] = target: Tb-labeled inactive PDGFRβ (Homo sapiens (Human), UniProt P09619); assay: PDGFRβ LanthaScreen Assay; type: binding; settings: read-out: PDGFR Lantha IC50
VEGFR2, unphosphorylated = VEGFR2, unphosphorylated (Homo sapiens (Human), UniProt P35968); assay: VEGFR ADP GLO Assay; type: biochemical
Sequence of VEGFR2, unphosphorylated (P35968 20-1356): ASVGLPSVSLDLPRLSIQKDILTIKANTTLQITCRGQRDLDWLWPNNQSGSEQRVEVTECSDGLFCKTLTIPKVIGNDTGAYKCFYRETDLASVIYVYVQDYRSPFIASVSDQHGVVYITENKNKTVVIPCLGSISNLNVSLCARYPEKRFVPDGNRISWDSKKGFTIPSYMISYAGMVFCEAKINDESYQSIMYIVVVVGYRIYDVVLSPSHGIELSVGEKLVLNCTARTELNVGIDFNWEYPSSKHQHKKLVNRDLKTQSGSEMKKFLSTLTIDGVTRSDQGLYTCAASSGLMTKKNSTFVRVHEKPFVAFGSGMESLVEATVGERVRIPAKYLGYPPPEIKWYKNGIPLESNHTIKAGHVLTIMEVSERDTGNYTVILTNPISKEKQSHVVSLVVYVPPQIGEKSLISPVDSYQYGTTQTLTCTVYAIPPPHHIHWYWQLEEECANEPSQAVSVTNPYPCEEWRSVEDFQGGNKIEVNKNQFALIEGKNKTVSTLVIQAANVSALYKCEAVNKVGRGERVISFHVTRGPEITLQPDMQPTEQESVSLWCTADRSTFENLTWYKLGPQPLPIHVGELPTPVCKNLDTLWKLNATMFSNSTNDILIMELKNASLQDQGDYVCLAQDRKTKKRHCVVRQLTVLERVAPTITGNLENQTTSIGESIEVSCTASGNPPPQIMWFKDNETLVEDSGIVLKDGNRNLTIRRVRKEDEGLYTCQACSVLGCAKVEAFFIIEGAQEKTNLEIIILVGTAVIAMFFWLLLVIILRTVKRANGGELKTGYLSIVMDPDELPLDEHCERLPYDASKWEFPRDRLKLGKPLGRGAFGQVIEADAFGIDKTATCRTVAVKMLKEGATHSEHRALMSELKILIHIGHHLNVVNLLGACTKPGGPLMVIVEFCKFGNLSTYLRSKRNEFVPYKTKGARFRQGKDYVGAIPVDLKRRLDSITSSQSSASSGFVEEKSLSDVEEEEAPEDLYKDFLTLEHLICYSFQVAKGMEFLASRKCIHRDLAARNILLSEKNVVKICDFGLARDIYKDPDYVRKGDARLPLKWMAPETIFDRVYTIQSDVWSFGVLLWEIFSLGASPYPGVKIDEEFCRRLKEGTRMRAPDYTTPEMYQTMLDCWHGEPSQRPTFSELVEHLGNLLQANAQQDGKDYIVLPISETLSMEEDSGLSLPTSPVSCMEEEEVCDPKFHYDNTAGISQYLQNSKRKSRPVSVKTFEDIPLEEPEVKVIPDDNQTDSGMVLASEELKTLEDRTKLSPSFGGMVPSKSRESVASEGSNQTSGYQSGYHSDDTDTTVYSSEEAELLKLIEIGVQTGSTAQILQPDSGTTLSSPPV

Sequence of His6-TEV-PDGFRβ (557-1016) (P09619 557-1016): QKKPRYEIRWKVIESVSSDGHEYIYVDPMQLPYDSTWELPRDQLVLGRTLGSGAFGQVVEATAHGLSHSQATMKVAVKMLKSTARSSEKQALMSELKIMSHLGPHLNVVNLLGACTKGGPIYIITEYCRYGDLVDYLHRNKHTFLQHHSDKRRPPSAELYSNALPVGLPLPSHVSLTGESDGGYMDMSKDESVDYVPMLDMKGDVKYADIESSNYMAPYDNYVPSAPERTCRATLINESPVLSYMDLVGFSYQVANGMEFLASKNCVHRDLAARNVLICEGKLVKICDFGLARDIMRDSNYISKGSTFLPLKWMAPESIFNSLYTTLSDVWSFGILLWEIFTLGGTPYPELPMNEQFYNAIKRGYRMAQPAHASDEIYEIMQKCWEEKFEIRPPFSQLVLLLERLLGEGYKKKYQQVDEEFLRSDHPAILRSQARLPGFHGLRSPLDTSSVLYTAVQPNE
Sequence of Tb-labeled inactive PDGFRβ (P09619 33-1106): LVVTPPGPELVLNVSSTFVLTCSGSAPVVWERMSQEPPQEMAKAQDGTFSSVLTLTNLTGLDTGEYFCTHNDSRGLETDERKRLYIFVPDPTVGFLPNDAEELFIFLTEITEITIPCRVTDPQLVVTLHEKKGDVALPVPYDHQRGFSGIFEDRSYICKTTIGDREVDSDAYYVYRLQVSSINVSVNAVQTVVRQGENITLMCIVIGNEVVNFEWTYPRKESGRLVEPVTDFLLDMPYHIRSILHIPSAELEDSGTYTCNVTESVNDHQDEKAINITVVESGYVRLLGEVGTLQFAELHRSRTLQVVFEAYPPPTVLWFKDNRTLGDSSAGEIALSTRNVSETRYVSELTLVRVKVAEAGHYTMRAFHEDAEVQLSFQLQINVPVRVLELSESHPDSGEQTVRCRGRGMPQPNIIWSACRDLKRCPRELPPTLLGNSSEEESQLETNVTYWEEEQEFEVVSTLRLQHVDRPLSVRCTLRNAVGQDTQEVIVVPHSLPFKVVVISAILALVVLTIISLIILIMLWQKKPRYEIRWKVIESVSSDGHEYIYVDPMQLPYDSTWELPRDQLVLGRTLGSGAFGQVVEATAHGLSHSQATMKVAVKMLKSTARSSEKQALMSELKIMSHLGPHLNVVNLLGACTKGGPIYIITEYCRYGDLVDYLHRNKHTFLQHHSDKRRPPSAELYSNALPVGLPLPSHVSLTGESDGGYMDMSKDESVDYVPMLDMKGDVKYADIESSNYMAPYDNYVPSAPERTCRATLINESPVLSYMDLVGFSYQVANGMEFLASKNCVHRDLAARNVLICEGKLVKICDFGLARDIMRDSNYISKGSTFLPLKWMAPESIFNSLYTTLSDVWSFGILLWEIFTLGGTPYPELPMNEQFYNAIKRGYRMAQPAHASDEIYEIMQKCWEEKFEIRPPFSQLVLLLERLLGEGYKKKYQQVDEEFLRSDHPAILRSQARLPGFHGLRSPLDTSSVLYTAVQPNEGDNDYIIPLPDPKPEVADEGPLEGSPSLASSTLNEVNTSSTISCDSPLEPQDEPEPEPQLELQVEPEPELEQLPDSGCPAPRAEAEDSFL

| Structure (SMILES) | pIC50 [1] | pIC50 [2] | pIC50 (VEGFR2, unphosphorylated) |
| --- | --- | --- | --- |
| Cc1ncc(NC(=O)CCN2CCCC2(C)C)cc1NC(=O)c1cnn2cc(-c3ccn(C)n3)sc12 [Example 12, N-(5-(3-(2,2-dimethylpyrrolidin-1-yl)propanamido)-2-methyl-pyridin-3-yl)-2-(1-methyl-1H-pyrazol-3-yl)pyrazolo[5,1-b]thiazole-7-carboxamide] | 9.52 | 8.48 | < 5.12 |
| Cc1ncc(NC(=O)CN2CCCC2(C)C)cc1NC(=O)c1cnn2cc(-c3cnn(C)c3)sc12 [Example 13, N-(5-(2-(2,2-dimethylpyrrolidin-1-yl)acetamido)-2-methylpyridin-3-yl)-2-(1-methyl-1H-pyrazol-4-yl)pyrazolo[5,1-b]thiazole-7-carboxamide] | 9.30 | 8.30 | < 5.12 |
| Cc1ncc(NC(=O)CN2CCC(F)(F)CC2)cc1NC(=O)c1cnn2cc(-c3cnn(C)c3)sc12 [Example 14, N-(5-(2-(4,4-difluoropiperidin-1-yl)acetamido)-2-methylpyridin-3-yl)-2-(1-methyl-1H-pyrazol-4-yl)pyrazolo[5,1-b]thiazole-7-carboxamide] | 9.40 | 8.57 | < 5.12 |
| Cc1ncc(NC(=O)CN(C)C2CCOCC2)cc1NC(=O)c1cnn2cc(-c3cnn(C)c3)sc12 [Example 15, 2-(1-methyl-1H-pyrazol-4-yl)-N-(2-methyl-5-(2-(methyl(tetrahydro-2H-pyran-4-yl)amino)acetamido)pyridin-3-yl)pyrazolo[5,1-b]thiazole-7-carboxamide] | 9.30 | 8.33 | < 5.12 |
| Cc1ncc(NC(=O)CN2CCCC23CC3)cc1NC(=O)c1cnn2cc(-c3cnn(C)c3)sc12 [Example 16, N-(5-(2-(4-azaspiro[2.4]heptan-4-yl)acetamido)-2-methylpyridin-3-yl)-2-(1-methyl-1H-pyrazol-4-yl)pyrazolo[5,1-b]thiazole-7-carboxamide] | 9.30 | 8.29 | < 5.12 |
| Cc1ncc(NC(=O)CN2CCc3cnn(C)c3C2)cc1NC(=O)c1cnn2cc(-c3cnn(C)c3)sc12 [Example 17, 2-(1-methyl-1H-pyrazol-4-yl)-N-(2-methyl-5-(2-(1-methyl-4,5-dihydro-1H-pyrazolo[3,4-c]pyridin-6 (7H)-yl)acetamido)pyridin-3-yl)pyrazolo[5,1-b]thiazole-7-carboxamide] | 9.30 | 8.22 | < 5.12 |
| Cc1ncc(NC(=O)CN2CCC3(COC3)C2)cc1NC(=O)c1cnn2cc(-c3cnn(C)c3)sc12 [Example 18, N-(5-(2-(2-oxa-6-azaspiro[3.4]octan-6-yl)acetamido)-2-methylpyridin-3-yl)-2-(1-methyl-1H-pyrazol-4-yl)pyrazolo[5,1-b]thiazole-7-carboxamide] | 9.22 | 8.02 | < 5.12 |
| Cc1ncc(C(=O)NCCN2CC3CCC2CC3)cc1NC(=O)c1cnn2cc(-c3cnn(C(F)F)c3)sc12 [Example 180, N-(5-((2-(2-azabicyclo[2.2.2]octan-2-yl)ethyl)carbamoyl)-2-methylpyridin-3-yl)-2-(1-(difluoromethyl)-1H-pyrazol-4-yl)pyrazolo[5,1-b]thiazole-7-carboxamide] | 9.40 | 8.21 | < 5.12 |
| Cc1ncc(C(=O)NCCN2CC3CCC2CC3)cc1NC(=O)c1cnn2cc(-c3cnn(C4CC4)c3)sc12 [Example 181, N-(5-((2-(2-azabicyclo[2.2.2]octan-2-yl)ethyl)carbamoyl)-2-methylpyridin-3-yl)-2-(1-cyclopropyl-1H-pyrazol-4-yl)pyrazolo[5,1-b]thiazole-7-carboxamide] | 9.70 | 8.64 | < 5.12 |
| Cc1cc(C(=O)NCCN2CCCC2(C)C)sc1NC(=O)c1cnn2cc(-c3cnn(C)c3)sc12 [Example 182, N-(5-((2-(2,2-dimethylpyrrolidin-1-yl)ethyl)carbamoyl)-3-methylthiophen-2-yl)-2-(1-methyl-1H-pyrazol-4-yl)pyrazolo[5,1-b]thiazole-7-carboxamide] | 7.62 | 5.70 | < 5.12 |
| Cc1cc(C(=O)NCCN2CCC(C)(C)CC2)sc1NC(=O)c1cnn2cc(-c3cnn(C)c3)sc12 [Example 183, N-(5-((2-(4,4-dimethylpiperidin-1-yl)ethyl)carbamoyl)-3-methylthiophen-2-yl)-2-(1-methyl-1H-pyrazol-4-yl)pyrazolo[5,1-b]thiazole-7-carboxamide] | 7.95 | 6.19 | < 5.12 |
| Cc1cc(C(=O)NCCN2CCCC2(C)C)sc1NC(=O)c1cnn2cc(-c3ccc(N)nc3)sc12 [Example 184, 2-(6-aminopyridin-3-yl)-N-(5-((2-(2,2-dimethylpyrrolidin-1-yl)ethyl)carbamoyl)-3-methylthiophen-2-yl)pyrazolo[5,1-b]thiazole-7-carboxamide] | 7.80 | 6.08 | < 5.12 |
| Cc1cc(C(=O)NCCN2CCCC2(C)C)sc1NC(=O)c1cnn2cc(-c3cncnc3)sc12 [Example 185, N-(5-((2-(2,2-dimethylpyrrolidin-1-yl)ethyl)carbamoyl)-3-methylthiophen-2-yl)-2-(pyrimidin-5-yl)pyrazolo[5,1-b]thiazole-7-carboxamide] | 6.15 | < 5.52 | < 5.12 |
| Cc1cc(C(=O)NCCN2CCCC2(C)C)sc1NC(=O)c1cnn2cc(-c3cnn(C)n3)sc12 [Example 186, N-(5-((2-(2,2-dimethylpyrrolidin-1-yl)ethyl)carbamoyl)-3-methylthiophen-2-yl)-2-(2-methyl-2H-1,2,3-triazol-4-yl)pyrazolo[5,1-b]thiazole-7-carboxamide] | 7.38 | 5.65 | < 5.12 |
| Cc1cc(C(=O)NCCN2CCCC2(C)C)sc1NC(=O)c1cnn2cc(-c3ccncc3)sc12 [Example 187, N-(5-((2-(2,2-dimethylpyrrolidin-1-yl)ethyl)carbamoyl)-3-methylthiophen-2-yl)-2-(pyridin-4-yl)pyrazolo[5,1-b]thiazole-7-carboxamide] | 7.56 | 5.93 | < 5.12 |
| Cc1cc(C(=O)NCCN2CCCC2(C)C)sc1NC(=O)c1cnn2cc(-c3ccn(C)n3)sc12 [Example 188, N-(5-((2-(2,2-dimethylpyrrolidin-1-yl)ethyl)carbamoyl)-3-methylthiophen-2-yl)-2-(1-methyl-1H-pyrazol-3-yl)pyrazolo[5,1-b]thiazole-7-carboxamide] | 8.02 | 6.17 | < 5.12 |
| Cc1cc(C(=O)NCCN2CCC(C)(C)C2)sc1NC(=O)c1cnn2cc(-c3cnn(C)c3)sc12 [Example 189, N-(5-((2-(3,3-dimethylpyrrolidin-1-yl)ethyl)carbamoyl)-3-methylthiophen-2-yl)-2-(1-methyl-1H-pyrazol-4-yl)pyrazolo[5,1-b]thiazole-7-carboxamide] | 8.14 | 6.50 | < 5.12 |
| Cc1cc(C(=O)NCCN(C)C2CCCC2)sc1NC(=O)c1cnn2cc(-c3cnn(C)c3)sc12 [Example 190, N-(5-((2-(cyclopentyl(methyl)amino)ethyl)carbamoyl)-3-methylthiophen-2-yl)-2-(1-methyl-1H-pyrazol-4-yl)pyrazolo[5,1-b]thiazole-7-carboxamide] | 8.22 | 6.40 | < 5.12 |
| Cc1cc(C(=O)NCCN2CCC(O)CC2)sc1NC(=O)c1cnn2cc(-c3cnn(C)c3)sc12 [Example 191, N-(5-((2-(4-hydroxypiperidin-1-yl)ethyl)carbamoyl)-3-methylthiophen-2-yl)-2-(1-methyl-1H-pyrazol-4-yl)pyrazolo[5,1-b]thiazole-7-carboxamide] | 6.60 | < 5.52 | < 5.12 |
| Cc1cc(C(=O)NCCN(C)C2CCOCC2)sc1NC(=O)c1cnn2cc(-c3cnn(C)c3)sc12 [Example 192, 2-(1-methyl-1H-pyrazol-4-yl)-N-(3-methyl-5-((2-(methyl(tetrahydro-2H-pyran-4-yl)amino)ethyl)carbamoyl)thiophen-2-yl)pyrazolo[5,1-b]thiazole-7-carboxamide] | 7.46 | 5.86 | < 5.12 |
| Cc1cc(C(=O)NCCN2CCC(CO)CC2)sc1NC(=O)c1cnn2cc(-c3cnn(C)c3)sc12 [Example 193, N-(5-((2-(4-(hydroxymethyl)piperidin-1-yl)ethyl)carbamoyl)-3-methylthiophen-2-yl)-2-(1-methyl-1H-pyrazol-4-yl)pyrazolo[5,1-b]thiazole-7-carboxamide] | 6.49 | < 5.52 | < 5.12 |
| Cc1cc(C(=O)NCCN2CC[C@@H](O)C2)sc1NC(=O)c1cnn2cc(-c3cnn(C)c3)sc12 [Example 194, (R)—N-(5-((2-(3-hydroxypyrrolidin-1-yl)ethyl)carbamoyl)-3-methylthiophen-2-yl)-2-(1-methyl-1H-pyrazol-4-yl)pyrazolo[5,1-b]thiazole-7-carboxamide] | 6.83 | < 5.52 | 5.69 |
| Cc1cc(C(=O)NCCN2CC[C@H](O)C2)sc1NC(=O)c1cnn2cc(-c3cnn(C)c3)sc12 [Example 195, (S)—N-(5-((2-(3-hydroxypyrrolidin-1-yl)ethyl)carbamoyl)-3-methylthiophen-2-yl)-2-(1-methyl-1H-pyrazol-4-yl)pyrazolo[5,1-b]thiazole-7-carboxamide] | 6.81 | < 5.52 | < 5.12 |
